Source: patent US10759813B2, “Neprilysin inhibitors” (THERAVANCE BIOPHARMA R&D IP, LLC, priority 2010, dated 2020)

What follows are compounds tested against human neprilysin (EC 3.4.24.11; NEP) (Homo sapiens (Human), UniProt P08473) (assay: In vitro enzyme inhibition assay at human NEP (fluorogenic peptide substrate)). Details: pKi values at human NEP, recombinant human NEP.
Chain of human neprilysin (EC 3.4.24.11; NEP) (P08473 52-750): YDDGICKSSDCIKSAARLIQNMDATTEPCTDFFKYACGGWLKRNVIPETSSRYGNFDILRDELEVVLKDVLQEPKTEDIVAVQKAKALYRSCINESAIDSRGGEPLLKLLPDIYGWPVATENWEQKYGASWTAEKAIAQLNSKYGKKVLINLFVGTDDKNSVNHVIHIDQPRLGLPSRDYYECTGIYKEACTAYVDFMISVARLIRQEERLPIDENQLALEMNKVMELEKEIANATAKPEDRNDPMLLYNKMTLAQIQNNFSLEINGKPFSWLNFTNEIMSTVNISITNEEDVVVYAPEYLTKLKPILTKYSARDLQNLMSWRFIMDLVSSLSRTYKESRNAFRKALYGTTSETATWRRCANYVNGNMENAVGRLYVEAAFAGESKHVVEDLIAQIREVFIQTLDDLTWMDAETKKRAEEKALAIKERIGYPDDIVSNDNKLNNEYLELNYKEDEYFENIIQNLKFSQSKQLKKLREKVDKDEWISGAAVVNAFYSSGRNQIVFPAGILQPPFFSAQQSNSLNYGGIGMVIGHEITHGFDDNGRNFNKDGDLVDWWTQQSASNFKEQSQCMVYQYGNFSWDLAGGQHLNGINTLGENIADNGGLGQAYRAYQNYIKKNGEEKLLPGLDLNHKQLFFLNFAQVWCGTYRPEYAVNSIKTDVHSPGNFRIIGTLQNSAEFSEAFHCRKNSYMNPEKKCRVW
Type: biochemical
Method in brief: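 pKi derived from apparent Ki fitted as v=v0/[1+(I/K′)] to Ex320/Em405 fluorescence. Compounds (pM to 10 μM) sat with recombinant human enzyme 30 min at 37 °C before 10 μM fluorogenic Mca peptide was added in HEPES pH 7.5 buffer with 10 μM ZnSO4; 20 min reaction, acetic acid quench.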
`O=C(O)c1ccc(C(=O)N[C@H](Cc2ccc(-c3ccccc3)cc2)CC(O)C(=O)O)nc1` (stereo partly drawn) [Example 13-7, 6-((R)-1-Biphenyl-4-ylmethyl-3-carboxy-3-hydroxypropylcarbamoyl)nicotinic acid] gave a Ki of 12.6 to 100 nM.
`O=C(N[C@H](Cc1ccc(-c2ccccc2)cc1Cl)C[C@@H](O)C(=O)O)c1nn(-c2cccc(Cl)c2)c(=O)[nH]1` [Example 20-3, (2R,4R)-5-(3-Chloro-biphenyl-4-yl)-4-{[1-(3-chloro-phenyl)-5-oxo-4,5-dihydro-1H-[1,2,4]triazole-3-carbonyl]-amino}-2-hydroxy-pentanoic acid] gave a pKi of at least 9.0.
Work on `O=C(N[C@H](Cc1ccc(-c2ccccc2)cc1)CC(O)C(=O)O)c1cc(-c2ccccc2)n[nH]1` (stereo partly drawn) [Example 15-76, (R)-5-Biphenyl-4-yl-2-hydroxy-4-[(5-phenyl-2H-pyrazole-3-carbonyl)-amino]-pentanoic acid] yielded a Ki of 1.26 to 10 nM.
Work on `O=C(N[C@H](Cc1ccc(-c2ccccc2)cc1)C[C@@H](O)C(=O)O)c1cc(-c2ccc(Cl)cc2Cl)[nH]n1` [Example 15-26, (2R,4R)-5-Biphenyl-4-yl-4-{[5-(2,4-dichlorophenyl)-1H-pyrazole-3-carbonyl]-amino}-2-hydroxy-pentanoic acid] yielded a pKi of at least 9.0.
Work on `O=C(N[C@H](Cc1ccc(-c2cccc(Cl)c2)cc1)C[C@@H](O)C(=O)O)c1n[nH]c(Cl)n1` [Example 18-46, (2R,4R)-5-(3′-Chlorobiphenyl-4-yl)-4-[(5-chloro-1H-[1,2,4]triazole-3-carbonyl)-amino]-2-hydroxy-pentanoic acid] yielded a pKi of at least 9.0.
Compound `CC(C)Cc1cc(C(=O)N[C@H](Cc2ccc(-c3cccc(Cl)c3)cc2)C[C@@H](O)C(=O)O)on1` [Example 18-12, (2R,4R)-5-(3′-Chloro-biphenyl-4-yl)-2-hydroxy-4-[(3-isobutyl-isoxazole-5-carbonyl)-amino]-pentanoic acid] has a pKi of at least 9.0.
For `COc1ccccc1C(=O)Nc1cc(C(=O)N[C@H](Cc2ccc(-c3ccccc3)cc2)C[C@@H](O)C(=O)O)on1` [Example 12-5, (2R,4R)-5-Biphenyl-4-yl-2-hydroxy-4-{[3-(2-methoxy-benzoylamino)-isoxazole-5-carbonyl]-amino}-pentanoic acid], the pKi was at least 9.0.
With `O=C(O)c1cc(C(=O)N[C@H](Cc2ccc(-c3ccccc3)cc2)C[C@@H](O)C(=O)O)on1` [Example 12-14, 5-((1R,3R)-1-Biphenyl-4-ylmethyl-3-carboxy-3-hydroxy-propylcarbamoyl)-isoxazole-3-carboxylic acid] the Ki was 12.6 to 100 nM.
Compound `O=C(O)Cc1cc(C(=O)N[C@H](Cc2ccc(-c3ccccc3)cc2)C[C@@H](O)C(=O)O)n[nH]1` [Example 15-2, (2R,4R)-5-Biphenyl-4-yl-4-[(5-carboxymethyl-1H-pyrazole-3-carbonyl)amino]-2-hydroxy-pentanoic acid] has a Ki of 1.26 to 10 nM.
Work on `O=C(N[C@H](Cc1ccc(-c2ccccc2)cc1)CC(O)C(=O)O)c1nc[nH]n1` (stereo partly drawn) [Example 10-6, (R)-5-Biphenyl-4-yl-2-hydroxy-4-[(1H-[1,2,4]triazole-3-carbonyl)amino]pentanoic acid] yielded a Ki of 12.6 to 100 nM.
`O=C(N[C@H](Cc1ccc(-c2ccccc2)cc1)C[C@@H](O)C(=O)O)c1cc(-c2ccccc2O)n(CC(O)CO)n1` (stereo partly drawn) [Example 15-30, (2R,4R)-5-Biphenyl-4-yl-4-{[1-(2,3-dihydroxy-propyl)-5-(2-hydroxy-phenyl)-1H-pyrazole-3-carbonyl]-amino}-2-hydroxy-pentanoic acid] gave a pKi of at least 9.0.
With `O=C(N[C@H](Cc1ccc(-c2ccccc2)cc1)C[C@@H](O)C(=O)O)c1cc(CN2CCOCC2)on1` [Example 12-19, (2R,4R)-5-Biphenyl-4-yl-2-hydroxy-4-[(5-morpholin-4-ylmethyl-isoxazole-3-carbonyl)-amino]-pentanoic acid] the Ki was 12.6 to 100 nM.
For `COc1cccc(Cn2nc(C(=O)N[C@H](Cc3ccc(-c4ccccc4)cc3)CC(O)C(=O)O)cc2C(=O)O)c1` (stereo partly drawn) [Example 15-17, 5-((R)-1-Biphenyl-4-ylmethyl-3-carboxy-3-hydroxy-propylcarbamoyl)-2-(3-methoxy-benzyl)-2H-pyrazole-3-carboxylic acid], the Ki was 12.6 to 100 nM.
Compound `O=C(N[C@H](Cc1ccc(-c2ccccc2)cc1)CC(O)C(=O)O)c1nnc(-c2ccccn2)[nH]1` (stereo partly drawn) [Example 10-10, (R)-5-Biphenyl-4-yl-2-hydroxy-4-[(5-pyridin-2-yl-4H-[1,2,4]triazole-3-carbonyl)amino]pentanoic acid] has a Ki of 1.26 to 10 nM.
Compound `O=C(N[C@H](Cc1ccc(-c2ccccc2)cc1)CC(O)C(=O)O)c1cc(C(=O)N2CCC(O)C2)n[nH]1` (stereo partly drawn) [Example 15-42, (R)-5-Biphenyl-4-yl-2-hydroxy-4-{[5-(3-hydroxypyrrolidine-1-carbonyl)-2H-pyrazole-3-carbonyl]-amino}-pentanoic acid] has a Ki of at most 1 nM.
With `COCCN(C)C(=O)c1cc(C(=O)N[C@H](Cc2ccc(-c3ccccc3)cc2Cl)C[C@@H](O)C(=O)O)[nH]n1` [Example 20-6, (2R,4R)-5-(3-Chloro-biphenyl-4-yl)-2-hydroxy-4-({5-[(2-methoxy-ethyl)-methyl-carbamoyl]-2H-pyrazole-3-carbonyl}-amino)-pentanoic acid] the pKi was at least 9.0.
Compound `O=C(N[C@H](Cc1ccc(-c2cccc(Cl)c2)cc1)C[C@@H](O)C(=O)O)c1cc(-c2cnccn2)n[nH]1` [Example 18-19, (2R,4R)-5-(3′-Chlorobiphenyl-4-yl)-2-hydroxy-4-[(5-pyrazin-2-yl-2H-pyrazole-3-carbonyl)-amino]-pentanoic acid] has a pKi of at least 9.0.
Work on `O=C(N[C@H](Cc1ccc(-c2ccccc2)cc1)C[C@@H](O)C(=O)O)c1cc(-c2ccccc2O)[nH]n1` [Example 15-28, (2R,4R)-5-Biphenyl-4-yl-2-hydroxy-4-{[5-(2-hydroxy-phenyl)-1H-pyrazole-3-carbonyl]-amino}-pentanoic acid] yielded a pKi of at least 9.0.
Compound `O=C(N[C@H](Cc1ccc(-c2cccc(Cl)c2)cc1)C[C@@H](O)C(=O)O)c1nn(-c2ccccc2Cl)c(=O)[nH]1` [Example 18-43, (2R,4R)-5-(3′-Chloro-biphenyl-4-yl)-4-{[1-(2-chloro-phenyl)-5-oxo-4,5-dihydro-1H-[1,2,4]triazole-3-carbonyl]-amino}-2-hydroxy-pentanoic acid] has a pKi of at least 9.0.
Compound `O=C(O)c1ccc(C(=O)N[C@H](Cc2ccc(-c3ccccc3)cc2)CC(O)C(=O)O)o1` (stereo partly drawn) [Example 12-1, 5-((R)-1-Biphenyl-4-ylmethyl-3-carboxy-3-hydroxypropylcarbamoyl)furan-2-carboxylic acid] has a Ki of 1.26 to 10 nM.
`Cc1cc(C(=O)N[C@H](Cc2ccc(-c3ccccc3)cc2)CC(O)C(=O)O)cc2[nH]nnc12` (stereo partly drawn) [Example 11-6, (R)-5-Biphenyl-4-yl-2-hydroxy-4-[(7-methyl-3H-benzotriazole-5-carbonyl)amino]pentanoic acid] was tested, and the Ki was 1.26 to 10 nM.
`Cc1nc(C(=O)N[C@H](Cc2ccc(-c3ccccc3)cc2)CC(O)C(=O)O)nn1-c1ccc(Cl)cc1` (stereo partly drawn) [Example 10-7, (R)-5-Biphenyl-4-yl-4-{[1-(4-chlorophenyl)-5-methyl-1H-[1,2,4]triazole-3-carbonyl]-amino}-2-hydroxypentanoic acid] gave a Ki of 12.6 to 100 nM.
For `O=C(O)CNC(=O)c1cc(C(=O)N[C@H](Cc2ccc(-c3ccccc3)cc2)CC(O)C(=O)O)[nH]n1` (stereo partly drawn) [Example 15-56, (R)-5-Biphenyl-4-yl-4-{[5-(carboxymethyl-carbamoyl)-2H-pyrazole-3-carbonyl]-amino}-2-hydroxy-pentanoic acid], the Ki was 1.26 to 10 nM.
`O=C(N[C@H](Cc1ccc(-c2cc(Cl)ccc2F)cc1)C[C@@H](O)C(=O)O)c1ccc2nnn(O)c2c1` [Example 22, (2R,4R)-5-(5′-Chloro-2′-fluorobiphenyl-4-yl)-2-hydroxy-4-[(3-hydroxy-3H-benzotriazole-5-carbonyl)-amino]-pentanoic Acid] gave a pKi of at least 9.0.
Work on `O=C(N[C@H](Cc1ccc(-c2ccccc2)cc1)C[C@H](O)C(=O)O)c1cnc2[nH]nnc2c1` [Example 11-13, (2S,4R)-5-Biphenyl-4-yl-2-hydroxy-4-[(3H-[1,2,3]triazolo[4,5-b]pyridine-6-carbonyl)-amino]-pentanoic acid] yielded a pKi of at least 9.0.
`O=C(N[C@H](Cc1ccc(-c2ccccc2)cc1Cl)C[C@@H](O)C(=O)O)c1cc(-c2cccnc2)n[nH]1` [Example 20-8, (2R,4R)-5-(3-Chloro-biphenyl-4-yl)-2-hydroxy-4-[(5-pyridin-3-yl-2H-pyrazole-3-carbonyl)-amino]-pentanoic acid] showed a pKi of at least 9.0.
In the case of `O=C(N[C@H](Cc1ccc(-c2cccc(Cl)c2)cc1)C[C@@H](O)C(=O)O)c1nnc(C(F)(F)F)[nH]1` [Example 18-45, (2R,4R)-5-(3′-Chlorobiphenyl-4-yl)-2-hydroxy-4-[(5-trifluoromethyl-4H-[1,2,4]triazole-3-carbonyl)-amino]-pentanoic acid], the pKi is reported as at least 9.0.
`CC(=O)c1cc(C(=O)N[C@H](Cc2ccc(-c3ccccc3)cc2)C[C@@H](O)C(=O)O)[nH]n1` [Example 1-B, (2R,4R)-4-[(5-Acetyl-2H-pyrazole-3-carbonyl)amino]-5-biphenyl-4-yl-2-hydroxypentanoic Acid] was tested, and the pKi was at least 9.0.
In the case of `O=C(N[C@H](Cc1ccc(-c2cccc(Cl)c2)cc1)C[C@@H](O)C(=O)O)c1nn(-c2ccccc2)c(=O)[nH]1` [Example 18-47, (2R,4R)-5-(3′-Chlorobiphenyl-4-yl)-2-hydroxy-4-[(5-oxo-1-phenyl-4,5-dihydro-1H-[1,2,4]triazole-3-carbonyl)-amino]-pentanoic acid], the pKi is reported as at least 9.0.
`C[C@H](O)c1cc(C(=O)N[C@H](Cc2ccc(-c3ccccc3)cc2)C[C@@H](O)C(=O)O)[nH]n1` [Example 15-109, (2R,4R)-5-Biphenyl-4-yl-2-hydroxy-4-{[5-((S)-1-hydroxyethyl)-2H-pyrazole-3-carbonyl]amino}pentanoic acid] gave a Ki of 1.26 to 10 nM.
`O=C(N[C@H](Cc1ccc(-c2ccccc2)cc1)CC(O)C(=O)O)c1cc(-c2ccco2)[nH]n1` (stereo partly drawn) [Example 15-37, (R)-5-Biphenyl-4-yl-4-[(5-furan-2-yl-1H-pyrazole-3-carbonyl)amino]-2-hydroxy-pentanoic acid] gave a Ki of 1.26 to 10 nM.
